Values of other authors in patent US20090203786A1, “Methods and Composition for Improving Cognitive Function” (priority 2005, published 2009).

Details: Connor W E et al. (1990)

half-life of DHA in brain (Rhesus monkey brain): 21 days
Cerebral DHA concentration relative to pre-supplementation value (Rhesus monkeys, stabilized after 12 weeks of supplementation): 7 times
Structure (SMILES): CC/C=C\C/C=C\C/C=C\C/C=C\C/C=C\C/C=C\CCC(=O)O [DHA, docosahexaenoic acid]
